Like-named read-outs stand apart in the source and are kept apart here.
Key:
[1] = target: T1, 5-HT2A receptor (Rattus norvegicus, UniProt P14842); assay: cell-based
T1 construct: Eight strips of tissue (0.5 cm long) were cut. and were mounted in 10 ml organ baths; tissue Charles River Laboratories; host or cells: rat aorta strips, endothelium removed
Description: The rat aorta (approximately 7 cm) was isolated and removed from the animal (male Sprague Dawley rat, Charles River Laboratories, Hollister, Calif.). The endothelium was removed mechanically. Eight strips of tissue (0.5 cm long) were cut. and were mounted in 10 ml organ baths kept at 37° C. with Krebs solution (composition in mM: NaCl (118.2), KCl (4.6), CaCl2 (2.5), MgSO4 (1.2), KH2PO4 (1.2), NaHCO3 (24.8) and dextrose (10.0)) that was constantly aerated with carbogen gas (95% O2/5% CO2) to obtain a pH of 7.4. The tissues were subjected to a resting tension of 2 g (3 times, 15 minutes apart, equilibrated in Krebs solution). The tissues were then washed 15 minutes later. Ten minutes later, the tissues were then exposed to 0.1 μM phenylephrine. At the maximal effect, 1 μM acetylcholine was added to confirm the absence of endothelium and then washed twice, 2 minutes apart.
Contractions were recorded as changes in tension from baseline and expressed as a percentage of the maximum response of the agonist (5-HT) concentration-effect curve. Agonist concentration-response curves were fitted using a nonlinear iterative fitting program (GraphPad Prism) using the relationship of Parker and Waud (Parker, R. B. and Waud, D. R. (1971). Pharmacological estimation of drug-receptor dissociation constants. Statistical evaluation. I. Agonists. J. Pharmacol. Exp. Ther., 177, 1-12). Agonist potency was expressed as EC50 (molar concentration of agonist producing 50% of the maximum response). Concentration-ratios (CRs) were determined from EC50 values in the presence and absence of antagonist and antagonist affinity estimates (pKB and pA2 values) were determined. All data are expressed as mean±s.e. mean.

[2] = target: T2, human D2s dopamine receptors (Homo sapiens, UniProt P14416); assay: hD2S receptor radioligand binding ([3H]spiperone); details: pKi reported on a scale of 1 through 5
T2 construct: expressed in transfected cells; host or cells: Chinese hamster ovary cells (membranes)
Description: (§1) Consistent with standard competition radioligand binding assays, the methodology was based on displacement of radioligand from tissues (or cell lines) bearing the receptor of interest (Cheng, Y. and Prusoff, W. H. (1973). Biochem. Pharmacol. 22, 3099-3108). The measurements were based on the binding of a single concentration of radiolabeled ligand in the presence of various concentrations of unlabeled ligand.
(§2) Tissues (or cellular plasma membrane fractions) were incubated in the presence of radioligand at equilibrium and in the presence of a range of concentrations of the test compounds (which were non-radiolabeled), and the displaced radioligand was separated from the membranes by filtration. Nonspecific binding was assessed by measuring displacement of the radioligand in the presence of a compound known to block binding of the radioligand to the receptor. Finally, the concentration-response relationship for radioligand displacement (corrected for non-specific binding) was used to assess binding of the test compound to the receptor.

[3] = target: T3, human D2L dopamine receptors (Homo sapiens, UniProt P14416); assay: hD2L receptor radioligand binding ([3H]spiperone); details: pKi reported on a scale of 1 through 5; read-out: D2L (pKi) (converted)
T3 construct: expressed in transfected cells; host or cells: insect Sf9 cells (membranes)
Description: as §1, §2

[4] = target: T4, human 5HT1A receptors (Homo sapiens, UniProt P08908); assay: h5-HT1A receptor radioligand binding ([3H]8OH-DPAT); details: pKi reported on a scale of 1 through 5
T4 construct: expressed in transfected cells; host or cells: Chinese hamster ovary cells (membranes)
T4 sequence (P08908 1-422): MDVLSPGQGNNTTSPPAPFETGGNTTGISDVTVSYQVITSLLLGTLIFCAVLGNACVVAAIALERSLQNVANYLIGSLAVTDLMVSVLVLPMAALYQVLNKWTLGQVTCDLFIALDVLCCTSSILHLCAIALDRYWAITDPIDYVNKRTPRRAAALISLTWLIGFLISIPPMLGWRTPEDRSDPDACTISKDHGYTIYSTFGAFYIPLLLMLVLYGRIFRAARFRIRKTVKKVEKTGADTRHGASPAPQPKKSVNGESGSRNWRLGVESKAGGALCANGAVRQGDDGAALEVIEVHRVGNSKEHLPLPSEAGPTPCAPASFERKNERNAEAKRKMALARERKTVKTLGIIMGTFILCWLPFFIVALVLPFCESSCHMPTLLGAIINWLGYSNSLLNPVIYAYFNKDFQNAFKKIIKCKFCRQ
Description: as §1, §2

[5] = target: T5, human 5HT2C receptors (Homo sapiens, UniProt P28335); assay: h5-HT2C receptor radioligand binding ([3H]Mesulergine); details: pKi reported on a scale of 1 through 5
T5 construct: expressed in transfected cells; host or cells: human embryo kidney cells (membranes)
T5 sequence (P28335 33-458): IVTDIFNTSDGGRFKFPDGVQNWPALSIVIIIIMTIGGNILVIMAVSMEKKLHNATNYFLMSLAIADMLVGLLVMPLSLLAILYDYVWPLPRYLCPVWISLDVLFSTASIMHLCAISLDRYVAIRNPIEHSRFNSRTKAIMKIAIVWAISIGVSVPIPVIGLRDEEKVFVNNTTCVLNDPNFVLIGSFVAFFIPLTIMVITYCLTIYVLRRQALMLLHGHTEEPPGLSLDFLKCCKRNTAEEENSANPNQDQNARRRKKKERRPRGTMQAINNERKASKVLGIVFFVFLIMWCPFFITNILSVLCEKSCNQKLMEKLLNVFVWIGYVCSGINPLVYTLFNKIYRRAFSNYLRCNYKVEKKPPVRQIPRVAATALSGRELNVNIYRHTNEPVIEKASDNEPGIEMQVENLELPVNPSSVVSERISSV
Description: The measurements were based on the binding of a single concentration of radiolabeled ligand in the presence of various concentrations of unlabeled ligand.
as §2

[6] = target: T6, human M3 receptors (Homo sapiens, UniProt P20309); assay: hM3 receptor radioligand binding ([3H]NMS)
T6 construct: expressed in transfected cells; host or cells: Chinese hamster ovary cells (membranes)
Description: as §1, §2

[7] = target: T7, human H1 receptors (Homo sapiens, UniProt P35367); assay: hH1 receptor radioligand binding ([3H]Pyrilamine); details: pKi reported on a scale of 1 through 5
T7 construct: expressed in transfected cells; host or cells: Chinese hamster ovary cells (membranes)
Description: as §1, §2

[8] = target: T8, human M1 receptors (Homo sapiens, UniProt P11229); assay: hM1 receptor radioligand binding ([3H]NMS); details: pKi reported on a scale of 1 through 5
T8 construct: expressed in transfected cells; host or cells: Chinese hamster ovary cells (membranes)
T8 sequence (P11229 1-460): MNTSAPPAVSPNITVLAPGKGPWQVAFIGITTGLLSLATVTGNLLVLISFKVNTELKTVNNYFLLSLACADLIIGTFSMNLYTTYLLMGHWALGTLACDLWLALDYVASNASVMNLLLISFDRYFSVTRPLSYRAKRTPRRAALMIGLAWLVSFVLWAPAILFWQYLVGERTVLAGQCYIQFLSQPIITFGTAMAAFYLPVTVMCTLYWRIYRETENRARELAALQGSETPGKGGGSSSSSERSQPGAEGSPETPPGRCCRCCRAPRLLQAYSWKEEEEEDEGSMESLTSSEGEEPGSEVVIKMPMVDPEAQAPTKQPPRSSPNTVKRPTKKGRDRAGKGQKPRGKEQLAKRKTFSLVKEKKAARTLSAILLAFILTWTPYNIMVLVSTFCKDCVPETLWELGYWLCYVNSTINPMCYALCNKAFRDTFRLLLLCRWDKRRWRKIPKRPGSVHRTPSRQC
Description: as §1, §2

[9] = target: T9, human 5HT7 receptors (Homo sapiens, UniProt P34969); assay: h5-HT7 receptor radioligand binding ([3H]5-CT)
T9 construct: expressed in transfected cells; host or cells: Chinese hamster ovary cells (membranes)
Description: as §1, §2

[10] = read-out: 5HT2A (pKb) (converted)
[11] = pKi reported on a scale of 1 through 5, read-out: M3 (pKi) (converted)
[12] = pKi reported on a scale of 1 through 5, read-out: 5HT7 (pKi) (converted)

T1 sequence (P14842 whole entry): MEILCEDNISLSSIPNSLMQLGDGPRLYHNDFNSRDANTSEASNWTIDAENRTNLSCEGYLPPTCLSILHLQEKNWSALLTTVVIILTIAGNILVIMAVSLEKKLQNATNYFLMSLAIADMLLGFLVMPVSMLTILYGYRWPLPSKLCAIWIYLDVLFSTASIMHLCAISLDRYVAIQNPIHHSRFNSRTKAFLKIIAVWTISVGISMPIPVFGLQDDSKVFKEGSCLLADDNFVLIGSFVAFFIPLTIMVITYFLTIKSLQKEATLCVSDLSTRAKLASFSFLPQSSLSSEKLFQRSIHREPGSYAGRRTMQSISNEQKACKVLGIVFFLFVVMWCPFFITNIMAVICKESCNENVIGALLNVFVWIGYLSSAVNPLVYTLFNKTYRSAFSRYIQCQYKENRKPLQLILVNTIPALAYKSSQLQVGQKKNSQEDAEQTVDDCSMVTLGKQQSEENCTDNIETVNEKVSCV
T3 sequence (P14416 whole entry): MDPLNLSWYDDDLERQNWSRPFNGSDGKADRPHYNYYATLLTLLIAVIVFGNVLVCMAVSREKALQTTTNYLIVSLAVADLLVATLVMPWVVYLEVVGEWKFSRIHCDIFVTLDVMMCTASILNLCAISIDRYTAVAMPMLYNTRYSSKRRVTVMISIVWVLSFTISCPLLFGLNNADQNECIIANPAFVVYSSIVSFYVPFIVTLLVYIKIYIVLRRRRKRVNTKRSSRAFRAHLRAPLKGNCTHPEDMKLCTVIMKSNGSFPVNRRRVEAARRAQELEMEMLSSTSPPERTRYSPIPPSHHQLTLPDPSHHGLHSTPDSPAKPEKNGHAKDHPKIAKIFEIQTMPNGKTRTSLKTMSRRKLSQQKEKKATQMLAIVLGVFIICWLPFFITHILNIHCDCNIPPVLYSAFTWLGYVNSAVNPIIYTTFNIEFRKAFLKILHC
T6 sequence (P20309 whole entry): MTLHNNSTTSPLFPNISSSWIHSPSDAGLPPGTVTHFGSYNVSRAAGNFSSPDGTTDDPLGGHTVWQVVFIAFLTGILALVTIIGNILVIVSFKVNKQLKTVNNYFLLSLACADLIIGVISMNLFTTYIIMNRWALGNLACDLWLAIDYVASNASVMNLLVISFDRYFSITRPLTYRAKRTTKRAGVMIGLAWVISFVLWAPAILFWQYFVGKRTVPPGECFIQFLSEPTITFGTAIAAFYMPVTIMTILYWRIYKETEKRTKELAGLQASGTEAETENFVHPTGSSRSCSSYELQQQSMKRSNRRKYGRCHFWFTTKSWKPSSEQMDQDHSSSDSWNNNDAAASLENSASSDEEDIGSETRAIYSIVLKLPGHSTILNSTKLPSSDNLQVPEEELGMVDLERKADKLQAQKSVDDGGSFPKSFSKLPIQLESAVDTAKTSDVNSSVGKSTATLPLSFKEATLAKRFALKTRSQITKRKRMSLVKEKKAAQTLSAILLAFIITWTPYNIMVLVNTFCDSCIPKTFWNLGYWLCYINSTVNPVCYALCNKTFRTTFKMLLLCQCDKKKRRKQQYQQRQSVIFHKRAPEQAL
T9 sequence (P34969 whole entry): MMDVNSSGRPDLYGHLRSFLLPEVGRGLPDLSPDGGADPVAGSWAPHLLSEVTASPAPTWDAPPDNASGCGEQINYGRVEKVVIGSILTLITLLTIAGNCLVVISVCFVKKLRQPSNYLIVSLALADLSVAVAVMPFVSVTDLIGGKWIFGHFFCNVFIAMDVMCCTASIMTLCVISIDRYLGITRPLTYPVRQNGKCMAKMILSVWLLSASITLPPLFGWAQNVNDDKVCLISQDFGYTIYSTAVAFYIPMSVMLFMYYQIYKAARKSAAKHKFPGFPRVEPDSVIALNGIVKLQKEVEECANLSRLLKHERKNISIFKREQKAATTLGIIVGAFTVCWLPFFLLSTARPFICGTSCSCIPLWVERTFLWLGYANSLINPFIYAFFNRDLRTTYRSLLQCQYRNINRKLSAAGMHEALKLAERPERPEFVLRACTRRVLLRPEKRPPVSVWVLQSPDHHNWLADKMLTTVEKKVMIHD
T2 sequence (P14416 1-414 isoform P14416-2): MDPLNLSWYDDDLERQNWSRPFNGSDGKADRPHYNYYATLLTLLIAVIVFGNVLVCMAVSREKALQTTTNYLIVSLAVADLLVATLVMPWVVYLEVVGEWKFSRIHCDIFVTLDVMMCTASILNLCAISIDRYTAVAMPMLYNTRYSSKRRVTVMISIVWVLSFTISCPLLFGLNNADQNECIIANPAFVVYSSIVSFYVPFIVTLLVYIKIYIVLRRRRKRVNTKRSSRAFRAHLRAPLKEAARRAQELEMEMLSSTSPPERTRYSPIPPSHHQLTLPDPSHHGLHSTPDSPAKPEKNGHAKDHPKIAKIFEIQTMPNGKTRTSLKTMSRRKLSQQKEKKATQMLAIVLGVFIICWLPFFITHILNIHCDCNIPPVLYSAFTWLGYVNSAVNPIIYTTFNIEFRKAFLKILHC
T7 sequence (P35367 whole entry): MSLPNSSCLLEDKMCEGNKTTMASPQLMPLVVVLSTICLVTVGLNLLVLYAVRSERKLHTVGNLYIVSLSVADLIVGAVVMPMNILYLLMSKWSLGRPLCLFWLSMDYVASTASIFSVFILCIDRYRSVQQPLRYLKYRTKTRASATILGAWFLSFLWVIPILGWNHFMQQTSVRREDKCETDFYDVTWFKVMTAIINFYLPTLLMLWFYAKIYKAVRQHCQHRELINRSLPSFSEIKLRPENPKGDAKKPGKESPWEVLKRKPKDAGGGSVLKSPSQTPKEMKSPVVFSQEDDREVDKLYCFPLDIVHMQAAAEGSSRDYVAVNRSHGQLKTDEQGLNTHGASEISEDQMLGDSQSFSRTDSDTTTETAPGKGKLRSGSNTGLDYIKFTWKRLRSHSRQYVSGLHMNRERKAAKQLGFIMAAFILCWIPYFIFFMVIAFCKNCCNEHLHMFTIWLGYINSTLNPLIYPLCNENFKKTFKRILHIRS

SMILES | Kb [1, 10] | Ki [2] | Ki [3] | Ki [4] | Ki [5] | Ki [6, 11] | Ki [7] | Ki [8] | Ki [9, 12] | Kb [1] | Ki [6] | Ki [9]
O=C(O)CC1CN(C2=Nc3cc(Cl)ccc3Oc3ccccc32)CCN1 (centres unmarked) [Compound E, (E)-2-(4-(8-chlorodibenzo[b,f][1,4]oxazepin-11-yl)piperazin-2-yl)acetic acid] | 31.6 to 97.7 nM | > 10000 nM | > 10 µM | 1000 to 9770 nM | 100 to 977 nM | > 10 µM | 100 to 977 nM | > 10 µM | – | – | – | –
CCOC(=O)CC1CN(C2=Nc3ccc(Cl)cc3Oc3ccccc32)CCN1 (centres unmarked) [H, (E)-ethyl 2-(4-(7-chlorodibenzo[b,f][1,4]oxazepin-11-yl)piperazin-2-yl)acetate] | 31.6 to 97.7 nM | 631 to 2450 nM | 0.631 to 2.45 µM | – | 10 to 97.7 nM | > 10 µM | 100 to 977 nM | > 10 µM | – | – | – | –
COC(C)(C)CCOC(=O)C[C@H]1CN(C2=Nc3cc(Cl)ccc3Oc3ccccc32)CCN1 [EB, (S,E)-3-methoxy-3-methylbutyl 2-(4-(8-chlorodibenzo[b,f][1,4]oxazepin-11-yl)piperazin-2-yl)acetate] | 10 to 30.9 nM | 631 to 2450 nM | – | ≤ 9.77 nM | 10 to 97.7 nM | > 10 µM | 10 to 97.7 nM | 5.01 to 9.77 µM | 1580 to 3890 nM | – | – | –
CN1CCN(C2=Nc3cc(Cl)ccc3Oc3ccccc32)C[C@@H]1CC(=O)OC1CCOCC1 [DZ, (S,E)-tetrahydro-2H-pyran-4-yl 2-(4-(8-chlorodibenzo[b,f][1,4]oxazepin-11-yl)-1-methylpiperazin-2-yl)acetate] | 31.6 to 97.7 nM | 2510 to 9770 nM | – | 100 to 977 nM | 100 to 977 nM | > 10 µM | – | – | > 10000 nM | – | – | –
C[C@H](O)C[C@H](C)OC(=O)C[C@H]1CN(C2=Nc3cc(Cl)ccc3Oc3ccccc32)CCN1 [EO, (2S,4S)-4-hydroxypentan-2-yl 2-((S)-4-((E)-8-chlorodibenzo[b,f][1,4]oxazepin-11-yl)piperazin-2-yl)acetate] | 10 to 30.9 nM | 631 to 2450 nM | – | ≤ 9.77 nM | 10 to 97.7 nM | > 10 µM | 10 to 97.7 nM | > 10 µM | 631 to 1550 nM | – | – | –
CCOC(=O)CC1CN(C2=Nc3cc(Cl)ccc3Oc3ccccc32)CCN1C (centres unmarked) [DN, (E)-ethyl 2-(4-(8-chlorodibenzo[b,f][1,4]oxazepin-11-yl)-1-methylpiperazin-2-yl)acetate] | 31.6 to 97.7 nM | 2510 to 9770 nM | 2.51 to 9.77 µM | – | 100 to 977 nM | > 10 µM | 100 to 977 nM | 2.51 to 4.9 µM | – | – | – | –
CC(C)(C)COC(=O)C[C@H]1CN(C2=Nc3cc(Cl)ccc3Oc3ccccc32)CCN1 [EA, (S,E)-neopentyl 2-(4-(8-chlorodibenzo[b,f][1,4]oxazepin-11-yl)piperazin-2-yl)acetate] | 10 to 30.9 nM | 2510 to 9770 nM | – | 10 to 97.7 nM | 10 to 97.7 nM | > 10 µM | 100 to 977 nM | 1.26 to 2.45 µM | > 10000 nM | – | – | –
CC(C)(O)CCOC(=O)C[C@H]1CN(C2=Nc3cc(Cl)ccc3Oc3ccccc32)CCN1 [EC, (S,E)-3-hydroxy-3-methylbutyl 2-(4-(8-chlorodibenzo[b,f][1,4]oxazepin-11-yl)piperazin-2-yl)acetate] | 10 to 30.9 nM | 631 to 2450 nM | – | 10 to 97.7 nM | 10 to 97.7 nM | > 10 µM | 10 to 97.7 nM | > 10 µM | 631 to 1550 nM | – | – | –
CN1CCN(C2=Nc3cc(Cl)ccc3Oc3ccccc32)C[C@@H]1CC(=O)O[C@@H]1CN2CCC1CC2 [DS, (S)-quinuclidin-3-yl 2-((S)-4-((E)-8-chlorodibenzo[b,f][1,4]oxazepin-11-yl)-1-methylpiperazin-2-yl)acetate] | – | > 10000 nM | – | 1000 to 9770 nM | 1000 to 9770 nM | – | – | – | – | > 100 nM | > 10 µM | > 10000 nM
COC(=O)CC1CN(C2=Nc3cc(Cl)ccc3Oc3ccccc32)CCN1 (centres unmarked) [I, (E)-methyl 2-(4-(8-chlorodibenzo[b,f][1,4]oxazepin-11-yl)piperazin-2-yl)acetate] | 10 to 30.9 nM | 2510 to 9770 nM | 2.51 to 9.77 µM | 100 to 977 nM | 10 to 97.7 nM | > 10 µM | 100 to 977 nM | 5.01 to 9.77 µM | – | – | – | –
O=C(O)C[C@@H]1CN(C2=Nc3cc(Cl)ccc3Oc3ccccc32)CCN1 [AB, (R,E)-2-(4-(8-chlorodibenzo[b,f][1,4]oxazepin-11-yl)piperazin-2-yl)acetic acid] | 31.6 to 97.7 nM | > 10000 nM | > 10 µM | > 10000 nM | 100 to 977 nM | > 10 µM | 100 to 977 nM | – | – | – | – | –
CCOC(=O)C[C@@H]1CN(C2=Nc3cc(Cl)ccc3Oc3ccccc32)CCN1 [O, (R,E)-ethyl 2-(4-(8-chlorodibenzo[b,f][1,4]oxazepin-11-yl)piperazin-2-yl)acetate] | 31.6 to 97.7 nM | 2510 to 9770 nM | 2.51 to 9.77 µM | 100 to 977 nM | 10 to 97.7 nM | > 10 µM | 100 to 977 nM | – | – | – | – | –
COC(=O)C[C@@H]1CN(C2=Nc3cc(Cl)ccc3Oc3ccccc32)CCN1 [Compound P, (R,E)-methyl 2-(4-(8-chlorodibenzo[b,f][1,4]oxazepin-11-yl)piperazin-2-yl)acetate] | 31.6 to 97.7 nM | 2510 to 9770 nM | 2.51 to 9.77 µM | 1000 to 9770 nM | 100 to 977 nM | > 10 µM | 100 to 977 nM | – | – | – | – | –

Source: patent US20120178738A1, “DIBENZO [B,F] [1,4]OXAZAPINE COMPOUNDS” (ARYX THERAPEUTICS, INC., priority 2007, published 2012)
